The results in this text go back to paper PMC12123411, “Structural insight into the novel Thermus thermophilus SPOUT methyltransferase RlmR catalysing Um2552 formation in the 23S rRNA A-loop: a case of convergent evolution” (Nucleic Acids Research, 2025).

Assay [1] addresses T1, RlmR (TTC1712) (Thermus thermophilus, UniProt Q72GY4).
T1 construct: gene TT_C1712; full-length ORF (about 260 residues), N-terminal His-tag, pET28, codon-optimised gene, expressed in E. coli Rosetta; homodimer; HB8 orthologue TTHA0275 differs by three residues
T1 sequence (Q72GY4 1-260): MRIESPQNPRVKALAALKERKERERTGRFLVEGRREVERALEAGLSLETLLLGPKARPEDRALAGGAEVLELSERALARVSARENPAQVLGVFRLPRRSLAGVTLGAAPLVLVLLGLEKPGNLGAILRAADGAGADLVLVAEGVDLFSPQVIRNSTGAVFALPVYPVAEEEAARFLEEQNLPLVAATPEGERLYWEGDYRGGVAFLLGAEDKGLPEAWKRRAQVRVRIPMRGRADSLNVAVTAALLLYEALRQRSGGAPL
The experiment in a line: X-ray crystal structure, […] Å. The class given is binding. The conditions noted are these: ternary complex with U2552 59-mer A-loop RNA; SAH in bent conformation; SAM site at the trefoil knot; pH 4.5.

Assay [2] has as its target T1, RlmR (TTC1712). As to the kind of experiment: X-ray crystal structure (co-crystal with RNA and SAM); also radiolabelled methyl transfer assay. Format: binding. As to conditions: co-substrate U2552 59-mer RNA; SAM kept in the dimer site without RNA, turned over to SAH in the RNA-bound site; assay pH 8.0, 5 mM MgCl2, 50 °C, labelled compound.
The target of assay [3] is RlmR (TTC1712), 23S rRNA Um2552 SPOUT methyltransferase of Thermus thermophilus HB27 (Thermus thermophilus HB27). The experiment in a line: SEC; gel filtration chromatography of purified RlmR (Supplementary Fig. S4).
The target is the same in assay [4]. As to the kind of experiment: crystal structure; RlmR apoenzyme crystallised under oil at 20°C (100 mM Na citrate pH 4, 20% PEG6000, 1 M LiCl); asymmetric unit of two dimers; the same dimer holds the 59-mer RNA in the complexes with SAH or SAM.

For `Nc1ncnc2c1ncn2[C@@H]1O[C@H](CSCC[C@H](N)C(=O)O)[C@@H](O)[C@H]1O` [SAH, S-adenosyl-homocysteine], the “X-ray crystal structure, 1.9 Å” value on RlmR (TTC1712) [1] was “crystal structure of RlmR in complex with the 59-mer RNA and SAH to a resolution”.
Consider `C[S+](CC[C@H](N)C(=O)O)C[C@H]1O[C@@H](n2cnc3c(N)ncnc32)[C@H](O)[C@@H]1O` (stereo partly shown) [SAM, S-adenosylmethionine], for which the “X-ray crystal structure (co-crystal with RNA and SAM); also radiolabelled methyl” value at RlmR (TTC1712) [2] was “in the other catalytic site of the dimer, not hosting the substrate, the co-substrate remains present as SAM”.
As for “RlmR (TTC1712), 23S rRNA Um2552 SPOUT methyltransferase of Thermus thermophilus HB27 (enzyme)”, the stoichiometry N in assay [3] and in assay [4] was 2 throughout.
